The source made the active and inactive calls. No cut-off for these calls is given here.
Species: Mus musculus
Assay: Anti-immunosuppressive activity in LPS-activated mouse MDSC assessed as reduction in PD-L1 expression at 20 to 40 uM incubated for 24 hrs by flow cytometry
Type: functional

| Compound | inhibition |
| --- | --- |
| CC1(C)C[C@H](O)C[C@@](C)(O)/C1=C\C(=O)O | inactive |
| CCCCOC(=O)[C@@]1(O)C[C@@H](O)[C@@H](OC(=O)/C=C/c2ccc(O)c(O)c2)[C@H](OC(=O)/C=C/c2ccc(O)c(O)c2)C1 | inactive |
| O=C(/C=C/c1ccc(O)c(O)c1)O[C@H]1[C@H](O)C[C@](O)(C(=O)O)C[C@H]1OC(=O)/C=C/c1ccc(O)c(O)c1 | inactive |
| CC(=O)/C=C/[C@H]1[C@](C)(O)[C@@H](O)[C@H](O)[C@H]2C(C)(C)CCC[C@@]21C | inactive |
| C=CC(=C)[C@H](O)C[C@H]1[C@](C)(O)[C@@H](O)[C@H](O)[C@H]2C(C)(C)CCC[C@@]21C | inactive |
| C=C/C(C)=C/C[C@H]1[C@](C)(O)[C@@H](O)[C@H](OC(=O)CC(C)C)[C@H]2C(C)(C)CCC[C@@]21C | inactive |
| C/C=C(/C)C(=O)O[C@H]1[C@H](O)[C@@](C)(O)[C@H](/C=C/C(C)=O)[C@@]2(C)CCCC(C)(C)[C@H]12 | inactive |
| CCC(C)/C(=C/C(=O)O)C(=O)O (stereo unspecified) | inactive |
| O=C(/C=C/c1ccc(O)c(O)c1)O[C@@H]1C[C@](O)(C(=O)O)C[C@@H](OC(=O)/C=C/c2ccc(O)c(O)c2)[C@@H]1O | inactive |
| O=C(/C=C/c1ccc(O)c(O)c1)O[C@@H]1C[C@@](O)(C(=O)O)C[C@@H](O)[C@H]1O | inactive |
| O=C(O)/C=C/C(=O)O | inactive |
| O=Cc1c[nH]c2ccccc12 | inactive |
| CCC(C)/C(=C/C(=O)O)C(=O)OC (stereo unspecified) | inactive |
| CC[C@H](CC[C@@H](C)[C@H]1CC[C@H]2[C@@H]3CC=C4C[C@@H](O)CC[C@]4(C)[C@H]3CC[C@]12C)C(C)C | inactive |
| O=C(/C=C/c1ccc(O)c(O)c1)O[C@@H]1[C@H](O)C[C@](O)(C(=O)O)C[C@H]1OC(=O)/C=C/c1ccc(O)c(O)c1 | inactive |
| COC(=O)[C@@]1(O)C[C@@H](O)[C@@H](OC(=O)/C=C/c2ccc(O)c(O)c2)[C@H](OC(=O)/C=C/c2ccc(O)c(O)c2)C1 | inactive |
| COc1ccc(-c2oc3cc(O)c(OC)c(O)c3c(=O)c2OC)cc1 [SANTIN] | inactive |
| CC(=O)/C=C/[C@H]1[C@](C)(O)[C@@H](O)[C@H](OC(=O)C=C(C)C)[C@H]2C(C)(C)CCC[C@@]21C | inactive |
| O=C(/C=C/c1ccc(O)c(O)c1)O[C@@H]1C[C@](OC(=O)/C=C/c2ccc(O)c(O)c2)(C(=O)O)C[C@@H](O)[C@@H]1O | inactive |
| C=C/C(C)=C/C[C@H]1[C@](C)(O)[C@@H](O)[C@H](O)[C@H]2C(C)(C)CCC[C@@]21C | inactive |
| C=CC(=C)[C@@H](O)C[C@H]1[C@](C)(O)[C@@H](O)[C@H](O)[C@H]2C(C)(C)CCC[C@@]21C | inactive |
| O=c1c(O[C@@H]2O[C@H](CO)[C@@H](O)[C@H](O)[C@H]2O)c(-c2ccc(O)cc2)oc2cc(O)cc(O)c12 | inactive |
| CC(=O)/C=C/[C@H]1[C@](C)(O)[C@@H](O)[C@H](OC(=O)CC(C)C)[C@H]2C(C)(C)CCC[C@@]21C | inactive |

What follows are molecules tested on RAW264.7 (assay: Anti-inflammatory activity in LPS-stimulated mouse RAW264.7 cells assessed as reduction in TNF-alpha production at 40 uM by ELISA relative to control).
Type: functional

| Compound | inhibition at 40 µM [%] |
| --- | --- |
| CC1(C)C[C@H](O)C[C@@](C)(O)/C1=C\C(=O)O | 27.5 |
| O=C(/C=C/c1ccc(O)c(O)c1)O[C@@H]1[C@H](O)C[C@](O)(C(=O)O)C[C@H]1OC(=O)/C=C/c1ccc(O)c(O)c1 | 15.5 |
| COc1ccc(-c2oc3cc(O)c(OC)c(O)c3c(=O)c2OC)cc1 [SANTIN] | 24 |

From ChEMBL document CHEMBL4376830, “Diterpenoids and Bisnorditerpenoids from Blumea aromatica” (2019)
